Experimental data published in patent US7041698B2, “Hepatitis C virus inhibitors” (Bristol-Myers Squibb Company, priority 2002, dated 2006).

Assays:
[1] = tested on: HCV replicon in Huh7 cells; experiment: HCV replicon cell-based assay; parameters: species or system HCV strain 1B; conditions: Hepatitis C virus, Huh-7, 96 h, HCV replicon, 4 days, read-out: EC50 range
Outline: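 Huh7 cells carrying a genotype 1b subgenomic replicon (NS3-NS5B, neo) treated 4 days at 37° C with compound (0.5% DMSO final). NS3 protease activity read in lysates with 10 μM FRET peptide (340/490 nm, kinetic), giving EC50. Confirmed by Taqman qRT-PCR of HCV RNA and a Renilla luciferase replicon.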

[2] = target: T1, HCV NS3/4A protease complex (UniProt P27958, C1454S/C1711G, species not given); experiment: Recombinant HCV NS3/4A protease complex FRET peptide assay (strain not stated); assay type: biochemical; conditions: HCV NS3/4A protease enzyme assay, read-out: IC50 range
T1 construct: fused on or other part: Three-lysine solubilising tail at the C-terminus of NS4A

Question: `C=CC1C[C@]1(NC(=O)[C@@H]1C[C@@H](OC(=O)Nc2cc(C)ccc2-c2nccs2)CN1C(=O)[C@@H](NC(=O)OC(C)(C)C)C(C)(C)C)C(=O)NS(=O)(=O)C1CC1` (stereo partly drawn) [Compound 94, BocNH-P3(t-BuGly)-P2(Hyp(O—CO(NH—(5-Methyl-2-thiazol-2-yl-phenyl))))-P1(1R,2S VinylAcca)—CONHSO2Cyclopropane] was tested. Which EC50 [1] did it give?
Answer: < 0.1 µM

Question: And the IC50 [2]?
Answer: < 0.1 µM

Question: Which EC50 [1] does the source give for `C=CC1C[C@]1(NC(=O)[C@@H]1C[C@@H](OC(=O)Nc2cc(OC)ccc2-n2cccn2)CN1C(=O)[C@@H](NC(=O)OC(C)(C)C)C(C)(C)C)C(=O)NS(=O)(=O)C1CC1` (stereo partly drawn) [Compound 95, BocNH-P3(t-BuGly)-P2(Hyp(O—CO(NH—(5-Methoxy-2-pyrazol-1-yl-phenyl))))-P1(1R,2S VinylAcca)—CONHSO2Cyclopropane] here?
Answer: 0.1 to 1 µM

Question: And the IC50 [2]?
Answer: < 0.1 µM

Question: How did the EC50 [1] turn out when `C=CC1C[C@]1(NC(=O)[C@@H]1C[C@@H](OC(=O)Nc2cc(C)ccc2-n2cccn2)CN1C(=O)[C@@H](NC(=O)OC(C)(C)C)C(C)(C)C)C(=O)NS(=O)(=O)C1CC1` (stereo partly drawn) [Compound 96, BocNH-P3(t-BuGly)-P2(Hyp(O—CO(NH—(5-Methyl-2-pyrazol-1-yl-phenyl))))-P1(1R,2S VinylAcca)—CONHSO2Cyclopropane] was run?
Answer: < 0.1 µM

Question: And the IC50 [2]?
Answer: < 0.1 µM

Question: Which EC50 [1] does the source give for `C=CC1C[C@]1(NC(=O)[C@@H]1C[C@@H](OC(=O)Nc2cc(C)ccc2-n2nccn2)CN1C(=O)[C@@H](NC(=O)OC(C)(C)C)C(C)(C)C)C(=O)NS(=O)(=O)C1CC1` (stereo partly drawn) [Compound 97, BocNH-P3(t-BuGly)-P2(Hyp(O—CO(NH—(5-Methyl-2-[1,2,3]triazol-2-yl-phenyl))))-P1(1R,2S VinylAcca)—CONHSO2Cyclopropane] here?
Answer: < 0.1 µM

Question: And the IC50 [2]?
Answer: < 0.1 µM

Question: What does the source list for `C=CC1C[C@]1(NC(=O)[C@@H]1C[C@@H](OC(=O)Nc2cc(C#N)ccc2-n2cccn2)CN1C(=O)[C@@H](NC(=O)OC(C)(C)C)C(C)(C)C)C(=O)NS(=O)(=O)C1CC1` (stereo partly drawn) [Compound 98, BocNH-P3(t-BuGly)-P2(Hyp(O—CO(NH—(5-Cyano-2-pyrazol-1-yl-phenyl))))-P1(1R,2S VinylAcca)—CONHSO2Cyclopropane]?
Answer: EC50 [1]: < 0.1 µM; IC50 [2]: < 0.1 µM

Question: For `C=CC1C[C@]1(NC(=O)[C@@H]1C[C@@H](OC(=O)Nc2cc(F)ccc2-n2cccn2)CN1C(=O)[C@@H](NC(=O)OC(C)(C)C)C(C)(C)C)C(=O)NS(=O)(=O)C1CC1` (stereo partly drawn) [Compound 99, BocNH-P3(t-BuGly)-P2(Hyp(O—CO(NH—(5-Fluoro-2-pyrazol-1-yl-phenyl))))-P1(1R,2S VinylAcca)—CONHSO2Cyclopropane], which EC50 [1] is on record?
Answer: < 0.1 µM

Question: And the IC50 [2]?
Answer: < 0.1 µM

Question: With `C=C[C@@H]1C[C@]1(NC(=O)[C@@H]1C[C@@H](OC(=O)Nc2cc(C(F)(F)F)ccc2-n2cccn2)CN1C(=O)[C@@H](NC(=O)OC(C)(C)C)C(C)(C)C)C(=O)NS(=O)(=O)C1CC1` [Compound 100, BocNH-P3(t-BuGly)-P2(Hyp(O—CO(NH—(5-trifluoromethyl-2-pyrazol-1-yl-phenyl))))-P1(1R,2S VinylAcca)—CONHSO2Cyclopropane] as the molecule, how does the EC50 [1] read?
Answer: < 0.1 µM

Question: What about the IC50 [2] of the same molecule?
Answer: < 0.1 µM

Question: How did the EC50 [1] turn out when `C=C[C@@H]1C[C@]1(NC(=O)[C@@H]1C[C@@H](OC(=O)N2CCc3ccccc3C2)CN1C(=O)[C@@H](NCC1CC1)C(C)(C)C)C(=O)NS(=O)(=O)C1CC1` [Compound 101] was run?
Answer: 1 to 10 µM

Question: What about the IC50 [2] of the same molecule?
Answer: < 0.1 µM

Question: Which results are given for `C=C[C@@H]1C[C@]1(NC(=O)[C@@H]1C[C@@H](OC(=O)Nc2ccccc2C(=O)OCC)CN1C(=O)[C@@H](NC(=O)OC)C(C)(C)C)C(=O)NS(=O)(=O)C1CC1` [Compound 110]?
Answer: EC50 [1]: 0.1 to 1 µM; IC50 [2]: < 0.1 µM

Question: Which results are given for `C=C[C@@H]1C[C@]1(NC(=O)[C@@H]1C[C@@H](OC(=O)Nc2ccccc2C(=O)OCC)CN1C(=O)[C@@H](NC(=O)OCC)C(C)(C)C)C(=O)NS(=O)(=O)C1CC1` [Compound 111]?
Answer: EC50 [1]: 0.1 to 1 µM; IC50 [2]: < 0.1 µM
